According to patent publication US9493438B2, “4,4-difluoro-piperidine-compounds” (ROTTAPHARM BIOTECH S.R.L., priority 2012, dated 2016):

Target: T1, human OX1 receptors (Homo sapiens, UniProt O43613)
T1 construct: expressed in transfected cells; host or cells: CHO cells
T1 sequence (O43613 1-425): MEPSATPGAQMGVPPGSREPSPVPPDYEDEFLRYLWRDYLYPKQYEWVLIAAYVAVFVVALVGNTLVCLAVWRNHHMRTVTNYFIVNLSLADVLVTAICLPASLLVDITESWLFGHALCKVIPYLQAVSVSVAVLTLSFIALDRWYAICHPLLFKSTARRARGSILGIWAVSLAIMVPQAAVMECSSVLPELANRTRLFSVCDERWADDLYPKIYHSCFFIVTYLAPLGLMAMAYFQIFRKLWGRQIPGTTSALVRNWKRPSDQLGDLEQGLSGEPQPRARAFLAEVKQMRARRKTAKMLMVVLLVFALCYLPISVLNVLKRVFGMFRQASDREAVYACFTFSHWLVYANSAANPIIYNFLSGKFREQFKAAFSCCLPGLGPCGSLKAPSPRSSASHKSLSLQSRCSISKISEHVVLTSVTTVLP
Assay: antagonistic activity against human OX1 receptor, [Ca2+]i fluorimetry in transfected CHO cells
Assay type: cell-based
Conditions: CHO cells transfected with human recombinant OX1; activated with orexin-A 3 nM; pKb = co-logarithm of apparent dissociation constant (modified Cheng Prusoff)
Experimental: Thus the plate was loaded with the calcium dye (Fluo-4NW/probenecid in HBSS, Hepes 20 mM, pH 7.4; Invitrogen) at 37° C. for 60 min. Afterward the temperature was equilibrated at 22° C. for 15 min and the [Ca2+]i measured directly on the plate by using a fluorescent plate reader (CeliLux Perkin Elmer).
Invention compounds were dissolved in DMSO, diluted in HBSS (DMSO, 0.3% final) and added to the wells. After 5 min CHO cells were activated with orexin-A, 3 nM while HEK-293 cells were activated with orexin-B, 10 nM. […] The antagonistic activity has been expressed as pKb (co-logarithm of the apparent dissociation constant calculated by using the modified Cheng Prusoff equation). The results are expressed as percent of control specific […] response ((measured specific response/control specific agonist response)×100) obtained in the presence of the test compounds.
The IC50 values (concentration causing a half-maximal inhibition of the control specific agonist response) were determinated by non-linear regression analysis of the concentration curves generated with mean replicate values using hill equation curve fitting. The IC50 values are obtained by the arithmetical mean of at least two experiments.

Compound	Kb [nM]	PKb OX1
Cc1ccc(-c2ccncc2)c(C(=O)N2CCC(F)(F)CC2CNc2ccc(C(F)(F)F)cn2)n1 (racemic) [Compound 52, (RS) (4,4-difluoro-2-(((5-(trifluoromethyl)pyridin-2-yl)amino)methyl)piperidin-1-yl)(6-methyl-[3,4′-bipyridin]-2-yl)methanone]	39.8	
Cc1ccc(-n2nccn2)c(C(=O)N2CCC(F)(F)CC2CNc2ccc(Cl)cn2)n1 (single isomer, unassigned; isomer a) [Compound 8, (2-(((5-chloropyridin-2-yl)amino)methyl)-4,4-difluoropiperidin-1-yl)(6-methyl-3-(2H-1,2,3-triazol-2-yl)pyridin-2-yl)methanone (isomer A)]	1.58	
Cc1nc(C(=O)N2CCC(F)(F)CC2CNc2ccc(Cl)cn2)c(-c2ccccc2)s1 (single isomer, unassigned; isomer a) [Compound 2, (2-(((5-chloropyridin-2-yl)amino)methyl)-4,4-difluoropiperidin-1-yl)(2-methyl-5-phenylthiazol-4-yl)methanone (isomer A)]	2	
Cc1cnc(-c2ncccn2)c(C(=O)N2CCC(F)(F)CC2CNc2ccc(Cl)cn2)c1 (racemic) [Compound 15, (RS)(2-(((5-chloropyridin-2-yl)amino)methyl)-4,4-difluoropiperidin-1-yl)(5-methyl-2-(pyrimidin-2-yl)pyridin-3-yl)methanone]	126	
(RS)(4,4-difluoro-2-(((5-(trifluoromethyl)pyridin-2-yl)amino)methyl)piperidin-1-yl)(6-methyl-3-(pyrimidin-2-yl)pyridin-2-yl)methanone [Compound 42]		8.2
O=C(c1nccc2ccccc12)N1CCC(F)(F)CC1CNc1ccc(Cl)cn1 (single isomer, unassigned; isomer a) [Compound 23, (2-(((5-chloropyridin-2-yl)amino)methyl)-4,4-difluoropiperidin-1-yl)(isoquinolin-1-yl)methanone (isomer A)]	79.4	
Cc1ncc(-c2ccc(F)cc2C(=O)N2CCC(F)(F)CC2CNc2ccc(C(F)(F)F)cn2)cn1 (racemic) [Compound 30, (RS)(4,4-difluoro-2-(((5-(trifluoromethyl)pyridin-2-yl)amino)methyl)piperidin-1-yl)(5-fluoro-2-(2-methylpyrimidin-5-yl)phenyl)methanone]	25.1	
O=C(c1nccc2ccccc12)N1CCC(F)(F)CC1CNc1ccc(Cl)cn1 (racemic) [Compound 22, (RS)(2-(((5-chloropyridin-2-yl)amino)methyl)-4,4-difluoropiperidin-1-yl)(isoquinolin-1-yl)methanone]	0.631	
O=C(c1ccccc1OCC1CC1)N1CCC(F)(F)CC1CNc1ccc(Cl)cn1 (racemic) [Compound 12, (RS)(2-(((5-chloropyridin-2-yl)amino)methyl)-4,4-difluoropiperidin-1-yl)(2-(cyclopropylmethoxy)phenyl)methanone]	2	
Cc1ccc(-c2cccnc2)c(C(=O)N2CCC(F)(F)CC2CNc2ccc(C(F)(F)F)cn2)n1 (racemic) [Compound 50]	5.01	
Cc1ccc(-c2ccccc2)c(C(=O)N2CCC(F)(F)CC2CNc2ccc(C(F)(F)F)cn2)n1 (single isomer, unassigned; isomer a) [Compound 37, (4,4-difluoro-2-(((5-(trifluoromethyl)pyridin-2-yl)amino)methyl)piperidin-1-yl)(6-methyl-3-phenylpyridin-2-yl)methanone (isomer A)]	200	
Cc1ccc(-c2ncccn2)c(C(=O)N2CCC(F)(F)CC2COc2ccc(C(F)(F)F)cn2)n1 (racemic) [Compound 48, (±)(4,4-difluoro-2-(((5-(trifluoromethyl)pyridine-2-yl)oxy)methyl)piperidin-1-yl)(6-methyl-3-(pyrimidin-2-yl)pyridin-2-yl)methanone]	7.94	

Now from value to compound:

Kb [nM]	PKb OX1	Compound
31.6		O=C(c1ccnc2ccccc12)N1CCC(F)(F)CC1CNc1ccc(C(F)(F)F)cn1 (racemic) [Compound 35]
63.1		O=C(c1nc(C(F)(F)F)ccc1-c1ncccn1)N1CCC(F)(F)CC1CNc1ccc(C(F)(F)F)cn1 (single isomer, unassigned; isomer a) [Compound 40, (4,4-difluoro-2-(((5-(trifluoromethyl)pyridin-2-yl)amino)methyl)piperidin-1-yl)(3-(pyrimidin-2-yl)-6-(trifluoromethyl)pyridin-2-yl)methanone (isomer A)]
10		Cc1nc(C(=O)N2CCC(F)(F)CC2CNc2ccc(Cl)cn2)c(-c2ccccc2)s1 (racemic) [Compound 1, (RS)(2-(((5-chloropyridin-2-yl)amino)methyl)-4,4-difluoropiperidin-1-yl)(2-methyl-5-phenylthiazol-4-yl)methanone]
15.8		Cc1ccc(-n2nccn2)c(C(=O)N2CCC(F)(F)CC2CNc2ccc(Cl)cn2)n1 (single isomer, unassigned; isomer b) [Compound 9, (2-(((5-chloropyridin-2-yl)amino)methyl)-4,4-difluoropiperidin-1-yl)(6-methyl-3-(2H-1,2,3-triazol-2-yl)pyridin-2-yl)methanone (isomer B)]
2.51		Cc1ccc(-c2ncccn2)c(C(=O)N2CCC(F)(F)CC2CNc2ccc(Cl)cn2)c1 (single isomer, unassigned; isomer a) [Compound 7, (2-(((5-chloropyridin-2-yl)amino)methyl)-4,4-difluoropiperidin-1-yl)(5-methyl-2-(pyrimidin-2-yl)phenyl)methanone (isomer A)]
5.01		Cc1ccc(-c2ncccn2)c(C(=O)N2CCC(F)(F)CC2CNc2ccc(Cl)cn2)c1 (racemic) [Compound 6, (RS)(2-(((5-chloropyridin-2-yl)amino)methyl)-4,4-difluoropiperidin-1-yl)(5-methyl-2-(pyrimidin-2-yl)phenyl)methanone]
15.8		Cc1ccc(-c2ncccn2)c(C(=O)N2CCC(F)(F)CC2CNc2ccc(C#N)cn2)n1 (racemic) [Compound 29]
100		Cc1ccc(-c2ncccn2)c(C(=O)N2CCC(F)(F)CC2CNc2ccc(Cl)cn2)n1 (single isomer, unassigned; isomer b) [Compound 17, (2-(((5-chloropyridin-2-yl)amino)methyl)-4,4-difluoropiperidin-1-yl)(6-methyl-3-(pyrimidin-2-yl)pyridin-2-yl)methanone (isomer B)]
2.51		O=C(c1nccc2ccccc12)N1CCC(F)(F)CC1CNc1ccc(C(F)(F)F)cn1 (racemic) [Compound 34, (RS)(4,4-difluoro-2-(((5-(trifluoromethyl)pyridin-2-yl)amino)methyl)piperidin-1-yl)(isoquinolin-1-yl)methanone]
2		O=C(c1nccc2ccccc12)N1CCC(F)(F)CC1CNc1ncc(C(F)(F)F)cc1F (racemic) [Compound 33, (RS)(4,4-difluoro-2-(((3-fluoro-5-(trifluoromethyl)pyridin-2-yl)amino)methyl)piperidin-1-yl)(isoquinolin-1-yl)methanone]
5.01		Cc1ccc(-n2nccn2)c(C(=O)N2CCC(F)(F)CC2CNc2ccc(C(F)(F)F)cn2)c1 (racemic) [Compound 5, (RS)(4,4-difluoro-2-(((5-(trifluoromethyl)pyridin-2-yl)amino)methyl)piperidin-1-yl)(5-methyl-2-(2H-1,2,3-triazol-2-yl)phenyl)methanone]
5.01		O=C(c1ccccc1OCc1ccccc1)N1CCC(F)(F)CC1CNc1ccc(Cl)cn1 (racemic) [Compound 21, (RS)(2-(benzyloxy)phenyl)(2-(((5-chloropyridin-2-yl)amino)methyl)-4,4-difluoropiperidin-1-yl)methanone]
15.8		O=C(c1ccncc1-c1ncccn1)N1CCC(F)(F)CC1CNc1ccc(Cl)cn1 (racemic) [Compound 28, (RS)(2-(((5-chloropyridin-2-yl)amino)methyl)-4,4-difluoropiperidin-1-yl)(3-(pyrimidin-2-yl)pyridin-4-yl)methanone]
5.01		O=C(c1cc(Cl)ccc1-c1ncccn1)N1CCC(F)(F)CC1CNc1ccc(Cl)cn1 (racemic) [Compound 19, (RS)(5-chloro-2-(pyrimidin-2-yl)phenyl)(2-(((5-chloropyridin-2-yl)amino)methyl)-4,4-difluoropiperidin-1-yl)methanone]
100		O=C(c1ccccc1OC1CCCC1)N1CCC(F)(F)CC1CNc1ccc(Cl)cn1 (racemic) [Compound 13, (RS)(2-(((5-chloropyridin-2-yl)amino)methyl)-4,4-difluoropiperidin-1-yl)(2-(cyclopentyloxy)phenyl)methanone]
7.94		CCOc1ccccc1C(=O)N1CCC(F)(F)CC1CNc1ccc(Cl)cn1 (racemic) [Compound 10, (RS)(2-(((5-chloropyridin-2-yl)amino)methyl)-4,4-difluoropiperidin-1-yl)(2-ethoxyphenyl)methanone]
